# Source: patent publication US10656142B2, “Measuring antiplatelet activity” (Melaleuca, Inc., priority 2014, dated 2020)
# System: platelets
# Assay: Rate of platelet superoxide production during oscillatory shear stress (EPR with CAT1H spin probe) in platelet rich plasma, before and after supplementation
# Type: in vivo, Human
# Conditions: 24 healthy volunteers; measured before and 10 hours after supplementation; Provex CV single or double daily dose, aspirin 325 mg; randomized, single-blind, cross-over study
# Experimental: Human venous blood was collected via a low-pressure protocol. A manual blood pressure cuff was applied to the arm with a maximum pressure of 40 mmHg. The first sodium citrate vacutainer (75 USP Units, 4 mL) was discarded, and three more were then filled. Blood was centrifuged at 100 g for 19 minutes with no active braking mechanism. Centrifuged blood was then allowed to sit for 20 to 30 minutes. […] An initial 30 μL sample was taken via glass capillary tube for a baseline reading. The SSC was started, and an initial, 5 point kinetic sample was measured. […]
# Amplitude readings were recalculated into μM, and a graph depicting μM/min was prepared. […]
# 24 healthy volunteers were supplemented with the test composition (Provex CV®) at two different dosages (single or double daily dose) or aspirin (325 mg) in a randomized, single-blind, cross-over study. The rate of superoxide production during shear stress was measured before and 10 hours after supplementation.
compound,measurement,value
CC(=O)Oc1ccccc1C(=O)O [aspirin],inhibition of platelet activation (rate of superoxide production during shear stress),no effect observed
